PubChem BioAssay AID330 (DTP/NCI, 2004)
Several values for one entry are separate records, joined by “and”; a condition that tells them apart may be missing. Equal values may be shown once. Toxic doses and inconclusive results are not listed.

System: P388 leukemia ip, CD2F1 mice, survival T/C
Assay: NCI In Vivo Anticancer Drug Screen. Data for tumor model P388 Leukemia (intraperitoneal) in CD2F1 (CDF1) mice
Settings: endpoint: median survival time, higher = longer survival
How it was run: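 Mice carrying the transplanted tumor received test compound or vehicle. Survival was recorded in each group, and the value is the treated-group measurement divided by that of the vehicle-treated control group.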

[1] = dose: 50.0 mg/kg/injection, schedule: Q01DX009 (ip), vehicle: Klucel (hydroxypropylcellulose) (HPC)
[2] = dose: 100.0 mg/kg/injection, schedule: Q01DX009 (ip), vehicle: Klucel (hydroxypropylcellulose) (HPC)
[3] = dose: 12.5 mg/kg/injection, schedule: Q01DX009 (ip), vehicle: water
[4] = dose: 25.0 mg/kg/injection, schedule: Q01DX009 (ip), vehicle: water
[5] = dose: 50.0 mg/kg/injection, schedule: Q01DX009 (ip), vehicle: water
[6] = dose: 100.0 mg/kg/injection, schedule: Q01DX009 (ip), vehicle: water
[7] = dose: 200.0 mg/kg/injection, schedule: Q01DX009 (ip), vehicle: water
[8] = dose: 60.0 mg/kg/injection, schedule: Q01DX005 (ip), vehicle: saline with Tween-80
[9] = dose: 120.0 mg/kg/injection, schedule: Q01DX005 (ip), vehicle: saline with Tween-80
[10] = dose: 240.0 mg/kg/injection, schedule: Q01DX005 (ip), vehicle: saline with Tween-80
[11] = dose: 100.0 mg/kg/injection, schedule: Q01DX001 (ip), vehicle: Klucel (hydroxypropylcellulose) (HPC)
[12] = dose: 200.0 mg/kg/injection, schedule: Q01DX001 (ip), vehicle: Klucel (hydroxypropylcellulose) (HPC)
[13] = dose: 60.0 mg/kg/injection, schedule: Q01DX005 (ip), vehicle: Klucel (hydroxypropylcellulose) (HPC)
[14] = dose: 120.0 mg/kg/injection, schedule: Q01DX005 (ip), vehicle: Klucel (hydroxypropylcellulose) (HPC)
[15] = dose: 240.0 mg/kg/injection, schedule: Q01DX005 (ip), vehicle: Klucel (hydroxypropylcellulose) (HPC)

## O=c1c2cnccc2cc2n1CCc1c-2[nH]c2ccccc12
dose: 3.12 mg/kg/injection, schedule: Q01DX009 (ip), vehicle: saline with Tween-80
  T/C: 101 % of control
dose: 6.25 mg/kg/injection, schedule: Q01DX009 (ip), vehicle: saline with Tween-80
  T/C: 101 % of control and 86 % of control
dose: 12.5 mg/kg/injection, schedule: Q01DX009 (ip), vehicle: saline with Tween-80
  T/C: 101 % of control
dose: 25.0 mg/kg/injection, schedule: Q01DX009 (ip), vehicle: saline with Tween-80
  T/C: 110 % of control

## O=C(Nc1ccc(C(=O)Nc2cccc(C3=NCCN3)c2)cc1)Nc1ccc(C(=O)Nc2cccc(C3=NCCN3)c2)cc1
dose: 100.0 mg/kg/injection, schedule: Q01DX001 (ip), vehicle: saline
  T/C: 108 % of control
dose: 200.0 mg/kg/injection, schedule: Q01DX001 (ip), vehicle: saline
  T/C: 100 % of control
dose: 400.0 mg/kg/injection, schedule: Q01DX001 (ip), vehicle: saline
  T/C: 116 % of control

## CCCCCCCC[As](CCCCCCCC)SC1OC(COC(C)=O)C(OC(C)=O)C(OC(C)=O)C1OC(C)=O (stereo not drawn)
[1]
  T/C: 102 % of control
[2]
  T/C: 90 % of control

## Cc1c(Br)c(Br)nn1C(C)C(=O)N(C)C (stereo not drawn)
[1]
  T/C: 110 % of control
[2]
  T/C: 99 % of control
dose: 200.0 mg/kg/injection, schedule: Q01DX009 (ip), vehicle: Klucel (hydroxypropylcellulose) (HPC)
  T/C: 101 % of control

## COC(=O)C1C(C)(C)N=[N+]([O-])C1(C)C (stereo not drawn)
[3]
  T/C: 102 % of control
[4]
  T/C: 107 % of control
[5]
  T/C: 99 % of control
[6]
  T/C: 97 % of control
[7]
  T/C: 99 % of control

## O=C1CS(=O)(=O)C(c2cccc(F)c2)N1N1C(=O)CS(=O)(=O)C1c1cccc(F)c1 (stereo not drawn)
[8]
  T/C: 92 % of control
[9]
  T/C: 95 % of control
[10]
  T/C: 94 % of control

## Clc1ccc(-c2cn3c(n2)SCC3)cc1
[11]
  T/C: 121 % of control
dose: 100.0 mg/kg/injection, schedule: Q04DX002 (ip), vehicle: Klucel (hydroxypropylcellulose) (HPC)
  T/C: 102 % of control
[12]
  T/C: 88 % of control
dose: 200.0 mg/kg/injection, schedule: Q04DX002 (ip), vehicle: Klucel (hydroxypropylcellulose) (HPC)
  T/C: 104 % of control
dose: 400.0 mg/kg/injection, schedule: Q04DX002 (ip), vehicle: Klucel (hydroxypropylcellulose) (HPC)
  T/C: 106 % of control

## COCCCC12C=C(OC)C(=O)C=C1OC(c1cc(OC)c(OC)c(OC)c1)C2C (stereo not drawn)
dose: 8.75 mg/kg/injection, schedule: Q01DX005 (ip), vehicle: Klucel (hydroxypropylcellulose) (HPC)
  T/C: 100 % of control
dose: 17.5 mg/kg/injection, schedule: Q01DX005 (ip), vehicle: Klucel (hydroxypropylcellulose) (HPC)
  T/C: 106 % of control
dose: 35.0 mg/kg/injection, schedule: Q01DX005 (ip), vehicle: Klucel (hydroxypropylcellulose) (HPC)
  T/C: 96 % of control

## CNC(=O)OCc1c(COC(=O)NC)c(-c2ccc(Br)cc2)n(C)c1C
dose: 20.0 mg/kg/injection, schedule: Q01DX009 (ip), vehicle: distilled water + Tween-80
  T/C: 155 % of control

## CCOC(=O)NNCC(=O)O
[3]
  T/C: 104 % of control
[4]
  T/C: 105 % of control
[5]
  T/C: 101 % of control
[6]
  T/C: 94 % of control
[7]
  T/C: 98 % of control

## CN(C)CCOc1cnc2ccc(Cl)cc2n1
dose: 50.0 mg/kg/injection, schedule: Q01DX005 (ip), vehicle: Klucel (hydroxypropylcellulose) (HPC)
  T/C: 88 % of control
dose: 100.0 mg/kg/injection, schedule: Q01DX005 (ip), vehicle: Klucel (hydroxypropylcellulose) (HPC)
  T/C: 88 % of control

## O=C(CS)Nc1ccccn1
dose: 12.5 mg/kg/injection, schedule: Q01DX009 (ip), vehicle: Klucel (hydroxypropylcellulose) (HPC)
  T/C: 104 % of control
dose: 25.0 mg/kg/injection, schedule: Q01DX009 (ip), vehicle: Klucel (hydroxypropylcellulose) (HPC)
  T/C: 103 % of control
[1]
  T/C: 103 % of control and 114 % of control

## C=C1c2cccc(O)c2C(O)=C2C(=O)[C@]3(O)C(O)=C(C(N)=O)C(=O)[C@@H](N(C)C)[C@@H]3[C@@H](O)[C@H]12
dose: 21.6 mg/kg/injection, schedule: Q01DX005 (ip), vehicle: Klucel (hydroxypropylcellulose) (HPC)
  T/C: 105 % of control
dose: 25.0 mg/kg/injection, schedule: Q01DX005 (ip), vehicle: Klucel (hydroxypropylcellulose) (HPC)
  T/C: 105 % of control and 115 % of control
dose: 36.0 mg/kg/injection, schedule: Q01DX005 (ip), vehicle: Klucel (hydroxypropylcellulose) (HPC)
  T/C: 99 % of control and 106 % of control
[13]
  T/C: 102 % of control and 97 % of control
dose: 166.66 mg/kg/injection, schedule: Q01DX005 (ip), vehicle: Klucel (hydroxypropylcellulose) (HPC)
  T/C: 115 % of control
dose: 166.67 mg/kg/injection, schedule: Q01DX005 (ip), vehicle: Klucel (hydroxypropylcellulose) (HPC)
  T/C: 112 % of control
dose: 400.0 mg/kg/injection, schedule: Q01DX005 (ip), vehicle: Klucel (hydroxypropylcellulose) (HPC)
  T/C: 87 % of control

## Cc1nc2cncnc2n(CCN2CCOCC2)c1=O
[13]
  T/C: 98 % of control
[14]
  T/C: 95 % of control
[15]
  T/C: 96 % of control

## Cc1ccc(S(=O)(=O)NC(=O)N(C)NC(=O)C(=O)NCc2ccco2)cc1
dose: 50.0 mg/kg/injection, schedule: Q01DX009 (ip), vehicle: saline with Tween-80
  T/C: 103 % of control
dose: 100.0 mg/kg/injection, schedule: Q01DX009 (ip), vehicle: saline with Tween-80
  T/C: 103 % of control
dose: 200.0 mg/kg/injection, schedule: Q01DX009 (ip), vehicle: saline with Tween-80
  T/C: 99 % of control

## OC1C(O)C(O)C(O)C(O)C1O (stereo not drawn)
dose: 50.0 mg/kg/injection, schedule: Q01DX009 (ip), vehicle: saline
  T/C: 97 % of control
dose: 100.0 mg/kg/injection, schedule: Q01DX009 (ip), vehicle: saline
  T/C: 96 % of control
dose: 200.0 mg/kg/injection, schedule: Q01DX009 (ip), vehicle: saline
  T/C: 100 % of control
dose: 400.0 mg/kg/injection, schedule: Q01DX009 (ip), vehicle: saline
  T/C: 96 % of control

## C=C1C(=O)O[C@H]2C1[C@H](OC(=O)/C(C)=C\C)CC(=C)[C@@H]1C(=O)[C@H]3O[C@@]3(C)[C@@]12O (stereo partly drawn)
dose: 12.5 mg/kg/injection, schedule: Q01DX005 (ip), vehicle: saline + alcohol
  T/C: 116 % of control and 117 % of control
dose: 25.0 mg/kg/injection, schedule: Q01DX005 (ip), vehicle: saline + alcohol
  T/C: 110 % of control and 121 % of control

## OCc1c(-c2ccccc2)nc2n1CCS2
[11]
  T/C: 102 % of control
[12]
  T/C: 102 % of control
dose: 400.0 mg/kg/injection, schedule: Q01DX001 (ip), vehicle: Klucel (hydroxypropylcellulose) (HPC)
  T/C: 98 % of control

## CCOC(=O)c1nc(Cl)nc(Cl)c1I
dose: 3.13 mg/kg/injection, schedule: Q01DX009 (ip), vehicle: distilled water + Tween-80
  T/C: 99 % of control
dose: 6.25 mg/kg/injection, schedule: Q01DX009 (ip), vehicle: distilled water + Tween-80
  T/C: 110 % of control
dose: 12.5 mg/kg/injection, schedule: Q01DX009 (ip), vehicle: distilled water + Tween-80
  T/C: 112 % of control and 123 % of control
dose: 25.0 mg/kg/injection, schedule: Q01DX009 (ip), vehicle: distilled water + Tween-80
  T/C: 101 % of control and 112 % of control
dose: 50.0 mg/kg/injection, schedule: Q01DX009 (ip), vehicle: distilled water + Tween-80
  T/C: 90 % of control

## O=[N+]([O-])c1ccc(N=C/C=C\Nc2ccc([N+](=O)[O-])cc2)cc1
[13]
  T/C: 87 % of control
[14]
  T/C: 93 % of control
[15]
  T/C: 104 % of control

## CC(C)(C)C(=O)OCn1cc2c(=O)[nH]cnc2n1
[13]
  T/C: 101 % of control
[14]
  T/C: 100 % of control
[15]
  T/C: 104 % of control

## CCCCCC(=O)C(C)(c1nc2n(c1O)/C(=N/C(=O)Nc1ccc(Cl)cc1)N=N2)c1nc2n(c1O)/C(=N/C(=O)Nc1ccc(Cl)cc1)N=N2
[8]
  T/C: 89 % of control
[9]
  T/C: 88 % of control
[10]
  T/C: 86 % of control

## COc1cc(OC)c2cc(C(=O)c3ccc(C#N)cc3)c(=O)oc2c1
[8]
  T/C: 94 % of control
[9]
  T/C: 104 % of control
[10]
  T/C: 105 % of control

## CCCCC(CC)COCCCNCC(=O)O (stereo not drawn)
dose: 60.0 mg/kg/injection, schedule: Q01DX005 (ip), vehicle: saline
  T/C: 102 % of control
dose: 120.0 mg/kg/injection, schedule: Q01DX005 (ip), vehicle: saline
  T/C: 107 % of control

## Cc1c2c(Cc3ccccc3)nccc2c(C)c2c1c1ccccc1n2Cc1ccccc1
dose: 6.25 mg/kg/injection, schedule: Q04DX003 (ip), vehicle: distilled water + Tween-80
  T/C: 87 % of control
dose: 12.5 mg/kg/injection, schedule: Q04DX003 (ip), vehicle: distilled water + Tween-80
  T/C: 88 % of control
dose: 50.0 mg/kg/injection, schedule: Q04DX003 (ip), vehicle: distilled water + Tween-80
  T/C: 86 % of control
